One experiment deals with T1, mu opioid receptor (Mus musculus, UniProt P42866).
T1 construct: Mouse brain membranes were prepared as described by Kosterlitz; from tissue; host or cells: mouse brain membranes
Description: Opioid radioligand binding assay, mu ([3H]-DAMGO), mouse brain membranes. Conditions: ratio of Ki, mu ([3H]-DAMGO) vs delta. The method, then:
(§1) Mouse brain membranes were prepared as described by Kosterlitz (Br. J. Pharmacol., 1981, 73, 939.). […] The binding of the mu ligand [^3 H]-DAMGO (Eur. J. Pharmacol., 1989, 166, 213) and of the kappa ligand [^3 H]-U69593 (Excerpta Medica, 1990, 211) were carried out at 0.5 nM. The non-specific binding was determined in presence of naloxone (10 μM) for all tritiated ligands. […] The IC50 obtained were used to calculate the inhibitory constants (Ki) accordingly to the Cheng and Prusoff relation (Biochem. Pharmacol., 1973, 22, 3099).

A further experiment has as its target T2, kappa opioid receptor (Mus musculus, UniProt P33534).
T2 construct: Mouse brain membranes were prepared as described by Kosterlitz; from tissue; host or cells: mouse brain membranes
Kind of experiment: Opioid radioligand binding assay, kappa ([3H]-U69593), mouse brain membranes. Conditions: ratio of Ki, kappa ([3H]-U69593) vs delta. How it is done: as §1

The target of experiment [1] is T3, delta receptor (Mus musculus, UniProt P32300). Kind of experiment: Mouse vas deferens (MVD) bioassay, delta agonist/antagonist studies, electrically stimulated tissue. It counts as cell-based, mouse (CD-1). Also noted: Vasa deferentia were obtained from CD-1 mice; from tissue; host or cells: vas deferens of CD-1 mice. The method, then:
Vasa deferentia were obtained from CD-1 mice and were suspended in a Mg^2+ -free Krebs buffer at 37° C. For the delta agonist/antagonist studies, the tissues were electrically stimulated with pulse trains having the following parameters: train duration 50 ms, stimulus duration 2 ms, frequency of stimuli 50 Hz, maximal voltage 60-70 V, train frequency 0.1 Hz. Concentration response curves for each compounds were constructed cumulatively. Linear regression analysis and IC50 concentrations were evaluated according to Tallarida and Murray (Manual of Pharmacological Calculations, Springer Verlag N.Y., 1981).

The target in experiment [2] is T3, delta receptor. Description: Opioid radioligand binding assay, delta ([3H]-DADLE in presence of unlabelled DAMGO), mouse brain membranes. Details: Mouse brain membranes were prepared as described by Kosterlitz; from tissue; host or cells: mouse brain membranes. The conditions noted are these: [3H]-DADLE 1.3 nM, 40 nM DAMGO. How it is done:
as §1

The Kb is the equilibrium dissociation constant of an antagonist, usually derived from a functional assay. High values mean a less potent antagonist, low ones a more potent antagonist. What is called Ki is the equilibrium dissociation constant of an inhibitor or competing ligand from its target.

T3 sequence (P32300 whole entry): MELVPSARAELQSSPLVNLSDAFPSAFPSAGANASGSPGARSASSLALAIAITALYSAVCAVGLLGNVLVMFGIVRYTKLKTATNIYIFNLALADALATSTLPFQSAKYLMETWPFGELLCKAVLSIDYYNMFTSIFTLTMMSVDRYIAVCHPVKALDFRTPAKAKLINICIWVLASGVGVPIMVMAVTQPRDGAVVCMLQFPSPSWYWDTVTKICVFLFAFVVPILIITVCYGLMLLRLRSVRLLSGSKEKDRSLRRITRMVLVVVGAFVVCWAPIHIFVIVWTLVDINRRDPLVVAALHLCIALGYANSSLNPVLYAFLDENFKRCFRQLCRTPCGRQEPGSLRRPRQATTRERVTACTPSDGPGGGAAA
T2 sequence (P33534 whole entry): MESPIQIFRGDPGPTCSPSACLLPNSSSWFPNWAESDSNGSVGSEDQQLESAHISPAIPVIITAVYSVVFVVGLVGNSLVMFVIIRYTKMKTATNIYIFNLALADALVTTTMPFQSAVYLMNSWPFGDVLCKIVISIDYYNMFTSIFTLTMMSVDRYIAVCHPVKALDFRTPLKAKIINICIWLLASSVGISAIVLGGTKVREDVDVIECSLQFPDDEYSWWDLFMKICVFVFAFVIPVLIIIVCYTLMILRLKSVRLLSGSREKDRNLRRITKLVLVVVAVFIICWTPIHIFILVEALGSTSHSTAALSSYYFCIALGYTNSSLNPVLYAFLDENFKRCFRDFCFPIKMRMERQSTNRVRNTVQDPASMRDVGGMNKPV
T1 sequence (P42866 whole entry): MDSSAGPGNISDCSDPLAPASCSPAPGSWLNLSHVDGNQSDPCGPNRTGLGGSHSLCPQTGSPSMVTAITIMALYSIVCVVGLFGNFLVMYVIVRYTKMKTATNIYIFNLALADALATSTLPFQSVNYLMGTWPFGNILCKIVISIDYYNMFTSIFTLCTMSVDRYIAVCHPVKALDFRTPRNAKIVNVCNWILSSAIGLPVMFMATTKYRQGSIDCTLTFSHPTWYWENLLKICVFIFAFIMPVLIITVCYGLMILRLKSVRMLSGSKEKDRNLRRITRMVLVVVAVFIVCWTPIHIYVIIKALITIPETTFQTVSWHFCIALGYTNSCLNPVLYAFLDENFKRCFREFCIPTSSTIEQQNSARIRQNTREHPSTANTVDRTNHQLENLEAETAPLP

As for `CCN(CC)C(=O)c1[nH]c2c(c1C)C[C@@H]1CN(C)CC[C@@]1(c1cccc(O)c1)C2.Cl` (racemic) [Example 10, (±)-trans-2-Diethylaminocarbonyl-3,6-dimethyl-8a-(3-hydroxyphenyl)-4,4a,5,6,7,8,8a,9-octahydro-1H-pyrrolo[2,3-g]isoquinoline hydrochloride], the “Ki mu/Ki delta” value at mu opioid receptor is recorded as 45. Besides, on kappa opioid receptor, the “Ki kappa/Ki delta” value worked out at 403. Besides, the Kb on delta receptor [1] amounted to 7 nM. For the same compound, the Ki at delta receptor [2] was determined as 2.15 nM.

Regarding `CCN1CC[C@@]2(c3cccc(O)c3)Cc3[nH]c(C(=O)N(CC)CC)c(C)c3C[C@@H]2C1.Cl` (single isomer, unassigned) [Example 34, (-)-trans-2-Diethylaminocarbonyl-6-ethyl-8a-(3-hydroxyphenyl)-3-methyl-4,4a,5,6,7,8,8a,9-octahydro-1H-pyrrolo[2,3-g]isoquinoline hydrochloride], at mu opioid receptor, the “Ki mu/Ki delta” value stood at 110. On kappa opioid receptor, the “Ki kappa/Ki delta” value is reported as 1105. Moreover, the IC50 on delta receptor [1] (mouse vas deferens, delta agonist study, read-out: IC50 in the MVD preparation (delta agonists)) is 26 nM. For the same compound, the Ki at delta receptor [2] worked out at 0.73 nM.

The values above are taken from patent US5731322A, “Octahydro-1H-pyrrolo[3,2-g]and [2,3-g]isoquinoline derivatives” (SmithKline Beecham S.p.A., priority 1993, dated 1998).
